The nature of data set [1]: Water uptake (hygroscopicity) after exposure to 80% relative humidity, Karl Fisher and XRD. It is filed as physicochemical. As for the experimental part:
The present invention further provides non hygroscopic anhydrous ziprasidone mesylate. Anhydrous ziprasidone mesylate is tested for water uptake after exposure to 80% relative humidity, at room temperature for 7 days, as summarized in the following table:
X-Ray powder diffraction data were obtained using a SCINTAG powder X-Ray diffractometer model X'TRA equipped with a solid state detector. Copper radiation of 1.5418 Å was used. A round aluminum sample holder with zero background was used. All peak positions are within ±0.2 degrees two theta. Karl Fisher analysis was performed according to the known art.
Anhydrous ziprasidone mesylate, having a tabular, and equant morphology was exposed to 80% humidity for at least 7 days at room temperature. Before the exposure, the water content was 0.5% as measured by Karl Fisher. After 7 days at 80% humidity at RT the sample contained 0.6% water as measured by Karl Fisher. Thus, there was an increase of 0.1% in the water content.

For data set [2] the following is noted: when exposed to air (humidity); cited from earlier work.
[3] abbreviates: 80% RH, room temperature, 7 days.

Molecules are shown by their SMILES. Where a name gives a salt, the structure may show the parent alone.

For the compound `O=C1Cc2cc(CCN3CCN(c4nsc5ccccc45)CC3)c(Cl)cc2N1` [Anhydrous ziprasidone mesylate, ziprasidone mesylate], the “Crystal form (by XRD)” value is “Anhydrous” in data set [1] (setting [3]) and “Anhydrous” in data set [1] (Initial, before exposure). Besides, the “water Content (By KF)” value in data set [1] (setting [3]) turned out to be 0.6; in data set [1] (Initial, before exposure), 0.5. Also, in data set [1] (80% humidity, at least 7 days, room temperature), the “change in the crystal form after the exposure” value is recorded as “No change in the crystal form”. For the same compound, in data set [1] (7 days at 80% humidity at RT vs before exposure), the “increase in the water content” value is recorded as 0.1%. The “water content as measured by Karl Fisher” value in data set [1] (after 7 days at 80% humidity at RT) is 0.6%; in data set [1] (before the exposure), 0.5%. Also, in data set [2], the hygroscopicity entry is given as “hygroscopic”.
